Measurements from US20070275936A1, “Formulations and Treatment Methods” (priority 1998, published 2007).
Marks after values point to notes of the source that are not given here.

How the values were obtained:
Type in all cases: in vivo
[1] = Oral administration of 14C BrEA to rats, preliminary pharmacokinetics; details: 14C BrEA solubilized in different excipients
Procedure: Nonclinical studies were conducted using an oral and a subcutaneous formulation of BrEA. Rats were orally administered ^14C BrEA solubilized in different excipients to determine the levels of drug in blood and various tissues.

HCV = HCV level by PCR in HIV/HCV infected patient dosed I.V. with BrEA; details: predosing 6.5
Procedure: A patient infected with HIV and HCV was dosed I.V. with BrEA for 3 consecutive days using a formulation that contained 20 mg/mL BrEA in 45% w/v hydroxypropyl-β-cyclodextrin and saline. Four mL of the formulation (80 mg BrEA) was administered to the patient every 4 hours during the 3 day treatment period. The patient's predosing HCV level was 6.5 Log10 as measured by PCR and the HCV level was 6.2 Log10 on the first day of dosing, 5.5 Log10 on the 3rd day of dosing and 4.9 Log10 three days after the last dose was administered. HIV RNA levels as measured by PCR was 5.2 Log10 (predosing), 5.8 Log10 (first day), 5.9 Log10 (third day) and 5.4 Log10 (day 6). The NK cell counts (cells/mm^3) were 28, 41 and 38 at predosing, day 0 and day 3.

Immune cell subsets = assay: Human HIV clinical protocol: immune phenotypes by flow cytometry; details: for CD8+CD16+CD38+ cells, median: Baseline 8; for CD8−CD16+ cells, median: Baseline 53; for CD8+CD69+CD25− cells, median: Baseline 18; for Activated T cells (CD8+ CD69+ CD25−), median: about 1 week after last dose
Procedure: Patients infected with HIV are dosed with an i.m. injection of 25-200 mg of BrEA using a formulation containing 100 mg/mL BrEA, PEG300 ˜30% v/v, propylene glycol 30% v/v, benzyl benzoate 30% v/v and benzyl alcohol 2% v/v. The pateints are dosed once per day for 5 consecutive days followed by a period of about 28 days or longer with no BrEA treatment. The patients were them provided with one more course of 5 consecutive days of dosing with BrEA, followed by a non-dosing period of at least about 28 days. Up to 8 rounds of 5-day treatments, followed by at least 28 days of no dosing were provided. Immunological responses were then assayed using blood or plasma samples from the patients by flow cytometry and other known analytical methods. Immune cell subsets or other measured markers were assayed within 24 hours of obtaining the sample from each patient. Labeled antibodies, e.g., anti-CD antigen antibodies conjugated with fluorescent dyes (FITC, phycoerythrin, allophycocyanin or PerCP), were prepared and used essentially according to standard protocols using commercially available reagents, see, e.g., PharMingen, 1998 Research Products Catalog, technical protocols at pages 732-774, human cell surface molecules at pages 182-295 and mouse, rat and hamster cell surface molecules at pages 2-173 and cytokine and chemokine reagents at pages 344-489.
Otherwise untreated patients with CD4 counts of ≧200/μL and HIV-1 viral RNA between 5,000 and 1,000,000 copies/mL (branched-DNA, version 3.0, Bayer, Tarrytown, N.Y.) provided informed consent and were enrolled into a Phase I/II dose-escalation study of the safety and efficacy of intramuscular injections of BrEA. The protocol was conducted in South Africa. In the first cohort, four patients received an initial injection of 1 mL (50 mg), followed by a safety and pharmocokinetic study for seven days, and then received five daily injections of 1 mL (50 mg). The second cohort of 8 patients was randomized in a 1:2 ratio to receive either 50 mg (1 mL) or 100 mg (2 mL) on the same schedule. Patients were allowed at the discretion of the investigators to receive up to three additional courses each, repeated after 28 days of observation. The protocol was amended to introduce an improved formulation, and to extend the initial pharmacokinetic and safety period to 14 days, the observation period following the five daily doses to 35 days, and to allow up to 7 treatment courses. A third cohort of 24 patients was randomized in a 1:2:4 ratio to receive either 50 mg (0.5 mL), 100 mg (1 mL), or 200 mg (2 mL) of BrEA. The patients were all male, since initial safety studies are not permitted in females in South Africa. Within the group of 39 patients randomized, the ethnic demographic included was 18 Caucasian, 17 African, and 4 other. The average age was 34 (range 20-63), the average initial CD4/μL was 434 (range 176-1210), and the average viral load was 13,772 copies/mL (range 3,020-158,489). Patients underwent physical examinations and provided samples for chemistry, hematology, virology and immunology testing approximately every two weeks.
Course 1, 2 and 3 refer to each 5 consecutive day treatment regimen of one daily injection with BrEA (50 or 100 mg BrEA per injection). The formulation contained 100 mg/mL BrEA, PEG300 ˜30% v/v, propylene glycol 30% v/v, benzyl benzoate 30% v/v and benzyl alcohol 2% v/v. The data shown below was obtained from patient blood samples at baseline (on the day dosing was initiated) and at various times after the patients received at least one dose of BrEA. […] The patients in this protocol initially had CD4 counts of at least 200 per mm^3 and a serum HIV RNA load of 5,000 to 1×10^6 RNA copies/mL. […] Average CD4 IL-10 production dropped from a median of 66% to 4% of the cells, while CD4 IFNγ went from a median of 8% to 63%, leading to a Th2 to a Th1 shift in cytokine production. […]

## C[C@]12CC[C@H](O)C[C@@H]1CC[C@@H]1[C@@H]2CC[C@]2(C)C(=O)[C@H](Br)C[C@@H]12 [BrEA, 16α-bromo-3β-hydroxy-5α-androstane-17-one]
[1]
  excreted in the feces: at least 80%
HCV; 3rd day of dosing
  HCV level by PCR: 5.5 Log10
HCV; first day of dosing, 80 mg I.V. every 4 hours for 3 days
  HCV level by PCR: 6.2 Log10
HCV; three days after the last dose
  HCV level by PCR: 4.9 Log10
Immune cell subsets; CD3+ CD8+ CD69+ CD25−, n=36, p=0.049
  Early Activation-Stage CD8+ T cells: Time-averaged AUC Increase Mean ± SEM: 67 ± 33%
Immune cell subsets; CD8+ CD16+, n=36, p=0.19
  LAK: Time-averaged AUC Increase Mean ± SEM: 13 ± 9%
Immune cell subsets; CD8−CD16+, n=36, p=0.20
  NK: Time-averaged AUC Increase Mean ± SEM: 29 ± 22%
Immune cell subsets; Course 1, Baseline 3.2, n=10, p<0.001
  Lin− HLA-DR+ CD11c+/CD123+ cells, median: 17.7 cells/μL
Immune cell subsets; Course 1, n=10, p<0.001
  CD8+CD16+CD38+ cells, median: 27 cells/μL
Immune cell subsets; Course 1, n=12, p<0.001
  CD8−CD16+ cells, median: 253 cells/μL
Immune cell subsets; Course 1, HIV patients, 50 or 100 mg i.m. daily ×5, n=13, p<0.001
  CD8+CD69+CD25− cells, median: 54 cells/μL
Immune cell subsets; Course 2, n=4, p=0.047
  CD8+CD16+CD38+ cells, median: 28 cells/μL
Immune cell subsets; Course 2, n=9, p<0.001
  CD8+CD69+CD25− cells, median: 56 cells/μL
Immune cell subsets; Course 2, n=4, p=0.02
  CD8−CD16+ cells, median: 288 cells/μL
Immune cell subsets; Course 2, baseline value from initiation of 2nd course = 6.4, n=5, p=0.02
  Lin− HLA-DR+ CD11c+/CD123+ cells, median: 11.4^c cells/μL
Immune cell subsets; Course 3, n=4, p=0.02
  CD8+CD16+CD38+ cells, median: 25 cells/μL
Immune cell subsets; Course 3, n=4, p=0.04
  CD8+CD69+CD25− cells, median: 75 cells/μL
Immune cell subsets; Course 3, n=2, p=0.04
  CD8−CD16+ cells, median: 249 cells/μL
Immune cell subsets; Course 3, baseline value from initiation of 2nd course = 6.4, n=4, p=0.04
  Lin− HLA-DR+ CD11c+/CD123+ cells, median: 14.7^c cells/μL
Immune cell subsets; Lineage− HLA-DR+ CD11c+, n=31, p=0.010
  DC1 (CD11c+) Dendritic Cells: Time-averaged AUC Increase Mean ± SEM: 50 ± 18%
Immune cell subsets; Lineage− HLA-DR+ CD123+, n=31, p=0.021
  DC2 (CD123+) Dendritic Cells: Time-averaged AUC Increase Mean ± SEM: 32 ± 13%
Immune cell subsets; Treatment 1, treated, baseline 19
  Activated T cells (CD8+ CD69+ CD25−), median: 54 (n = 13, p < 0.001) cells/μL
Immune cell subsets; Treatment 1, treated, baseline 3.5
  Dendritic cells (Lin− HLA-DR+ CD123+/CD11+), median: 18 (n = 10, p = 0.001) cells/μL
Immune cell subsets; Treatment 1, treated, baseline 8
  LAK cells (CD8+ CD16+ CD38+), median: 27 (n = 10, p < 0.001) cells/μL
Immune cell subsets; Treatment 1, treated, baseline 54
  NK (ADCC responders) cells (CD8− CD16+), median: 253 (n = 12, p < 0.001) cells/μL
Immune cell subsets; Treatment 2, treated, baseline 19
  Activated T cells (CD8+ CD69+ CD25−), median: 56 (n = 9, p < 0.001) cells/μL
Immune cell subsets; Treatment 2, treated, baseline 6.5
  Dendritic cells (Lin− HLA-DR+ CD123+/CD11+), median: 11.5 (n = 5, p = 0.02) cells/μL
Immune cell subsets; Treatment 2, treated, baseline 12
  LAK cells (CD8+ CD16+ CD38+), median: 28 (n = 4, p = 0.04) cells/μL
Immune cell subsets; Treatment 2, treated, baseline 58
  NK (ADCC responders) cells (CD8− CD16+), median: 285 (n = 4, p = 0.02) cells/μL
Immune cell subsets; Treatment 3, treated, baseline 18
  Activated T cells (CD8+ CD69+ CD25−), median: 74 (n = 4, p = 0.04) cells/μL
Immune cell subsets; Treatment 3, treated, baseline 6
  Dendritic cells (Lin− HLA-DR+ CD123+/CD11+), median: 55 (n = 4, p = 0.04) cells/μL
Immune cell subsets; Treatment 3, treated, baseline 12
  LAK cells (CD8+ CD16+ CD38+), median: 25 (n = 4, p = 0.02) cells/μL
Immune cell subsets; Treatment 3, treated, baseline 56
  NK (ADCC responders) cells (CD8− CD16+), median: 250 (n = 2, p = 0.04) cells/μL
Immune cell subsets; after one course (5 daily i.m. injections), dropped from 66%
  CD4 IL-10 production, median % of the cells: 4%
Immune cell subsets; after one course (5 daily i.m. injections), went from 8%
  CD4 IFNγ, median % of the cells: 63%
Immune cell subsets; analysis visit day 22
  DC1 (CD11c+) Dendritic Cells: Maximum Analysis Visit Responses Mean: 58% (22)
Immune cell subsets; analysis visit day 36
  NK: Maximum Analysis Visit Responses Mean: 41% (36)
Immune cell subsets; analysis visit day 67
  LAK: Maximum Analysis Visit Responses Mean: 34% (67)
Immune cell subsets; analysis visit day 80
  DC2 (CD123+) Dendritic Cells: Maximum Analysis Visit Responses Mean: 44% (80)
Immune cell subsets; analysis visit day 139
  Total Dendritic Cells: Maximum Analysis Visit Responses Mean: 38% (139)
Immune cell subsets; analysis visit day 153
  Early Activation-Stage CD8+ T cells: Maximum Analysis Visit Responses Mean: 162% (153)
Immune cell subsets; change from baseline, n=31
  DC1 (CD11c+) Dendritic Cells: Maximum Individual Patient Responses Mean (range): 130% (−20 to 870%)
  DC2 (CD123+) Dendritic Cells: Maximum Individual Patient Responses Mean (range): 100% (−30 to 480%)
  Total Dendritic Cells: Maximum Individual Patient Responses Mean (range): 100% (−20 to 600%)
Immune cell subsets; change from baseline, n=36
  Early Activation-Stage CD8+ T cells: Maximum Individual Patient Responses Mean (range): 210% (0 to 3,090%)
  LAK: Maximum Individual Patient Responses Mean (range): 90% (−90 to 630%)
  NK: Maximum Individual Patient Responses Mean (range): 140% (−40 to 1,220%)
Immune cell subsets; i.m. BrEA, HIV patients, CD3+ CD8+ and CD69+ or CD25+, n=36, p=0.005
  Activated CD8+ T cells: Time-averaged AUC Increase Mean ± SEM: 15 ± 5%
Immune cell subsets; i.m. BrEA, HIV patients, analysis visit day 22
  Activated CD8+ T cells: Maximum Analysis Visit Responses Mean: 25% (22)
Immune cell subsets; i.m. BrEA, HIV patients, change from baseline, n=36
  Activated CD8+ T cells: Maximum Individual Patient Responses Mean (range): 70% (−10 to 340%)
Immune cell subsets; n=31, p=0.003
  DC1 to DC2 Ratio: Time-averaged AUC Increase Mean ± SEM: 44 ± 13%
Immune cell subsets; n=31, p=0.010
  Total Dendritic Cells: Time-averaged AUC Increase Mean ± SEM: 38 ± 14%
